Experimental data reported in US20220175768A1, “FGFR TYROSINE KINASE INHIBITORS FOR THE TREATMENT OF UROTHELIAL CARCINOMA” (Janssen Pharmaceutica NV, priority 2019, published 2022).

How the values were obtained:
urothelial cancer = experiment: Best response to prior therapy before study enrolment per investigator assessment; type: in vivo, human; settings: first-line, across all regimens
From the text: Across all regimens, 184 patients had received first-line platinum-based chemotherapy, 83 had received second-line chemotherapy, and 24 had received third-line chemotherapy before study enrolment.

[1] = study in which nine of 10 patients had disease progression with prior immunotherapy; cited from earlier work

Molecule | Best ORR per investigator assessment to prior chemotherapy (urothelial cancer) [%] | Patients who responded to rogaratinib [1] [%]
gemcitabine plus cisplatin | 35 | 
COCc1c(-c2cc3cc(C)cc(OC)c3s2)c2c(N)ncnn2c1CN1CCNC(=O)C1 [rogaratinib] |  | 30
